Laboratory results published in patent publication US12162819B2, “Ionizable lipid compounds” (Beijing Jitai Pharmaceutical Technology Co., Ltd., priority 2022, dated 2024).

Experiments:
[1] = Encapsulation efficiency of lipid nanoparticles, Quant-It RiboGreen RNA Assay; format: physicochemical; settings: lipid nanoparticle with the cationic lipid, luciferase mRNA
Protocol: (§1) Lipid nanoparticles were prepared by (1) dissolving and mixing ionizable lipid compounds, cholesterol, phospholipids and polyethylene glycolated lipids in ethanol at (molar percentages) 50%, 38.5%, 10% and 1.5%, respectively; (2) dissolving the mRNA active ingredient in 25 mM sodium acetate solution (pH=4.5); (3) using an automated high-throughput microfluidic system to mix the organic phase containing the lipid mixture and the aqueous phase containing the mRNA component in the flow ratio range of 1:1 to 1:4 at a mixing speed of 10 mL/min to 18 mL/min; (4) the prepared lipid nanoparticles (N/P ratio of 6) were diluted with phosphate buffer solution and the nanoparticle solutions were ultrafiltered to the original preparation volume using ultrafiltration tubes (purchased from Millipore) with a cut-off molecular weight of 30 kDa; and (5) the obtained nanoparticles were filtered through a sterile 0.2 μm filter membrane and then stored in a sealed glass vial at low temperature.
(§2) The particle size and particle size dispersity index (PDI) of the prepared lipid nanoparticles were measured using a Zetasizer Pro (purchased from Malvern Instruments Ltd) and a DynaPro NanoStar (purchased from Wyatt) dynamic light scattering instrument. The degree of RNA encapsulation by lipid nanoparticles was characterized by the Encapsulation Efficiency %, which reflects the degree of binding of lipid nanoparticles to RNA fragments. This parameter was measured by the method of Quant-It™ RiboGreen RNA Assay (purchased from Invitrogen). Lipid nanoparticle samples were diluted in TE buffer (10 mM Tris-HCl, 1 mM EDTA, pH=7.5). A portion of the sample solution was removed, to which 0.5% Triton (Triton X-100) was added, and then allowed to stand at 37° C. for 30 minutes. Immediately after the addition of RIBOGREEN® reaction solution, the fluorescence values were read on a Varioskan LUX multifunctional microplate reader (purchased from Thermofisher) at 485 nm for absorption and 528 nm for emission to give the encapsulation efficiency values.

[2] = Particle size and PDI of lipid nanoparticles by dynamic light scattering; format: physicochemical; settings: lipid nanoparticle with the cationic lipid, cholesterol, DSPC, DMG-PEG2000 (50/38.5/10/1.5 mol%), luciferase mRNA, N/P 6
Protocol: as §1, §2

C57BL/6 mice = experiment: In vivo bioluminescence assay of lipid nanoparticles encapsulated with luciferase mRNA in mice; settings: for Total photon count in vivo at 6 hours after administration (Total Flux): C57BL/6 mice, intravenous, single dose 0.5 mg/kg luciferase mRNA in LNP, group mean; for in vivo delivery efficiency compared with the molecule without tetramethyl: LNP with luciferase mRNA in mice, compound 20 vs. D1, compound 46 vs. D2
Protocol: as §1
The delivery effect and safety of nanoparticles encapsulated with luciferase mRNA (Trilink, L-7202) in mice were evaluated. The test mice were SPF-grade C57BL/6 mice, female, 6-8 weeks old, weighing 18-22 g, and were purchased from SPF (Beijing) Biotechnology Co., Ltd. All animals were acclimatized for more than 7 days prior to the experiment, and had free access to food and water during the experiment. The conditions include alternating light and dark for 12/12 h, the indoor temperature of 20-26° C. and the humidity of 40-70%. The mice were randomly grouped. The lipid nanoparticles encapsulated with luciferase mRNA prepared above were injected into mice by intravenous administration at a single dose of 0.5 mg/kg mRNA, and the mice were subjected to in vivo bioluminescence assay using a Small Animal In Vivo Imaging System (IVIS LUMINA III, purchased from PerkinElmer) at 6 h after administration. The assay was performed as follows: D-luciferin solution was prepared in saline at a concentration of 15 mg/mL, and each mouse was given the substrate by intraperitoneal injection. At ten minutes after administration of the substrate, the mice were anesthetized in an anesthesia chamber with isoflurane at a concentration of 2.5%. The anesthetized mice were placed in IVIS for fluorescence imaging, and data acquisition and analysis were performed on the concentrated distribution area of fluorescence.
The in vivo delivery efficiency of lipid nanoparticle carriers was expressed as the mean values of fluorescence intensity and total photon count in different animals within the same subject group, as shown in Table 5. Higher values of fluorescence intensity and total photon count indicate higher in vivo delivery efficiency of this mRNA fragment by lipid nanoparticles. The lipid nanoparticles containing the cationic lipids of the present disclosure have good in vivo delivery efficiency.

Row | SMILES | Encapsulation efficiency (%) [1] | Particle size (nm) [2] | Particle size dispersity (PDI) [2] | Total photon count in vivo at 6 hours after administration (Total Flux) (C57BL/6 mice) | in vivo delivery efficiency compared with the molecule without tetramethyl (C57BL/6 mice)
1 | CCCCCCCCCCNC(=O)C(C)(C)CCCCCC(CCCCCC(C)(C)C(=O)NCCCCCCCCCC)OC(=O)CN(C)C [Compound 13] | 56.65% | 157.10 nm | 0.08 | 1.08E+06 | 
2 | CCCCCCCCCCNC(=O)C(C)(C)CCCCCC(CCCCCC(C)(C)C(=O)NCCCCCCCCCC)OC(=O)CCCN(C)C [Compound 14] | 45.66% | 306.07 nm | 0.08 | 6.34E+07 | 
3 | CCCCCCCCN(CCCCCCCC)CCOC(=O)C(C)(C)CCCCCC(CCCCCC(C)(C)C(=O)OCCN(CCCCCCCC)CCCCCCCC)OC(=O)CCN(C)C [Compound 15] | 84.78% | 91.68 nm | 0.06 | 4.89E+08 | 
4 | CCCCCCCCC(CCCCCC)OC(=O)C(C)(C)CCCCCC(CCCCCC(C)(C)C(=O)OC(CCCCCC)CCCCCCCC)OC(=O)CCN(C)C (stereo not drawn) [Compound 16] | 96.52% | 55.39 nm | 0.05 | 3.97E+07 | 
5 | CCCCCCCCCOC(=O)C(C)(C)CCCCCC(CCCCCC(C)(C)C(=O)OCCCCCCCCC)OC(=O)CCCN(C)C [Compound 20] | 71.93% | 99.61 nm | 0.10 |  | significantly increased in vivo delivery efficiency
6 | CCCCCCCCCOC(=O)C(C)(C)CCCCCC(CCCCCC(C)(C)C(=O)OCC(CCCCC)CCCCCCC)OC(=O)CCCN(C)C (stereo not drawn) [Compound 46] | 95.68% | 97.30 nm | 0.09 |  | significantly increased in vivo delivery efficiency
7 | CCCCCCCCCOC(=O)C(C)(C)CCCCCC(CCCCCC(C)(C)C(=O)OCCCCCCCCC)OC(=O)C1CCN(C(C)C)CC1 [Compound 103] | 90.97% | 148.67 nm | 0.04 |  | 
8 | CCCCCCCCCCSC(=O)C(C)(C)CCCCCC(CCCCCC(C)(C)C(=O)SCCCCCCCCCC)OC(=O)C1CCN(C)CC1 [Compound 104] | 85.54% | 71.14 nm | 0.06 |  | 
9 | CCCCCCCCCCSC(=O)C(C)(C)CCCCCC(CCCCCC(C)(C)C(=O)SCCCCCCCCCC)OC(=O)C1CCN(C(C)C)CC1 [Compound 105] | 94.67% | 78.80 nm | 0.05 |  | 
10 | CCCCCCCCCSC(=O)C(C)(C)CCCCCC(CCCCCC(C)(C)C(=O)SCCCCCCCCC)OC(=O)C1CCN(C)CC1 [Compound 106] | 85.65% | 83.09 nm | 0.05 |  | 
11 | CCCCCCCCCSC(=O)C(C)(C)CCCCCC(CCCCCC(C)(C)C(=O)SCCCCCCCCC)OC(=O)C1CCN(C(C)C)CC1 [Compound 107] | 83.74% | 99.54 nm | 0.05 |  | 
12 | CCCCCCCCCSC(=O)C(C)(C)CCCCCC(CCCCCC(C)(C)C(=O)SCCCCCCCCC)OC(=O)CC1CCN(C)CC1 [Compound 108] | 92.63% | 121.41 nm | 0.05 |  | 
13 | CCCCCCCCCSC(=O)C(C)(C)CCCCCC(CCCCCC(C)(C)C(=O)SCCCCCCCCC)OC(=O)CC1CCN(CC)CC1 [Compound 109] | 87.11% | 101.04 nm | 0.06 |  | 
14 | CCCCCCCCCOC(=O)C(C)(C)CCCCCC(CCCCCC(C)(C)C(=O)OCC(CCCCC)CCCCCCC)OC(=O)CC1CCN(C)CC1 (stereo not drawn) [Compound 111] | 95.12% | 141.30 nm | 0.06 |  | 
15 | CCCCCCCCCSC(=O)C(C)(C)CCCCCC(CCCCCC(C)(C)C(=O)OCC(CCCCC)CCCCCCC)OC(=O)CC1CCN(C)CC1 (stereo not drawn) [Compound 112] | 94.41% | 121.05 nm | 0.08 |  | 
16 | CCCCCCCC#CCOC(=O)C(C)(C)CCCCCC(CCCCCC(C)(C)C(=O)OCCCC(CCCCC)CCCCC)OC(=O)CCCN(C)C (stereo not drawn) [Compound 115] | 91.76% | 77.12 nm | 0.04 |  | 
17 | CCCCCCCC#CCOC(=O)C(C)(C)CCCCCC(CCCCCC(C)(C)C(=O)OCC(CCCCC)CCCCCCC)OC(=O)CCCN(C)C (stereo not drawn) [Compound 116] | 89.36% | 88.62 nm | 0.05 |  | 
18 | CCCCC(CC#CCOC(=O)C(C)(C)CCCCCC(CCCCCC(C)(C)C(=O)OCC#CCC(CCCC)CCCC)OC(=O)CCCN(C)C)CCCC [Compound 117] | 95.29% | 127.31 nm | 0.06 |  | 
19 | CCCCCCCCCOC(=O)C(C)(C)CCCCCC(CCCCCC(C)(C)C(=O)OCC#CC(CCCCCC)CCCCCC)OC(=O)CCCN(C)C (stereo not drawn) [Compound 118] | 93.87% | 88.33 nm | 0.07 |  | 
20 | CCCCCCCCCOC(=O)C(C)(C)CCCCC(CCCCC(C)(C)C(=O)OCC(CCCCC)CCCCCCC)OC(=O)CCCN(C)C (stereo not drawn) [Compound 122] | 91.76% | 96.72 nm | 0.07 |  | 
21 | CCCCCCCCCCOC(=O)C(C)(C)CCCCC(CCCCC(C)(C)C(=O)OCC(CCCCC)CCCCCCC)OC(=O)CCCN(C)C (stereo not drawn) [Compound 123] | 92.27% | 84.98 nm | 0.05 |  | 
22 | CCCCCCCCCOC(=O)C(C)(C)CCCCCCC(CCCCCCC(C)(C)C(=O)OCC(CCCCC)CCCCCCC)OC(=O)CCCN(C)C (stereo not drawn) [Compound 125] | 89.45% | 95.69 nm | 0.07 |  | 
23 | CCCCCCCCCOC(=O)C(C)(C)CCCCCCC(CCCCCCC(C)(C)C(=O)OCC(CCCCC)CCCCCCC)OC(=O)CCCCN(C)C (stereo not drawn) [Compound 126] | 94.35% | 133.76 nm | 0.06 |  | 
24 | CCCCCCC(CCCCCC)CCOC(=O)CCC(C)(C)CCCC(CCCC(C)(C)CCC(=O)OCCC(CCCCCC)CCCCCC)OC(=O)CCCN(C)C [Compound 128] | 79.88% | 83.10 nm | 0.05 |  | 
25 | CCCCCCCC(CCCCCCC)COC(=O)CCC(C)(C)CCCC(CCCC(C)(C)CCC(=O)OCC(CCCCCCC)CCCCCCC)OC(=O)CCCN(C)C [Compound 129] | 57.87% | 112.08 nm | 0.06 |  | 
26 | CCCCCCCCCOC(=O)CCCCCCC(CCCCCCC(=O)OCCCCCCCCC)OC(=O)CCCN(C)C [Compound D1, reference compound] | 97.08% | 131.2 nm | 0.18 |  | 
27 | CCCCCCCCCOC(=O)CCCCCCC(CCCCCCC(=O)OCC(CCCCC)CCCCCCC)OC(=O)CCCN(C)C (stereo not drawn) [Compound D2, reference compound] | 79.63% | 245.33 nm | 0.20 |  | 
